Experimental data published in US12435061B2 (priority 2020, dated 2025).
Values joined by “and” are separate entries in the source; they are usually repeats but may differ in a detail not shown here. Equal values may be shown once. Where a name gives a salt, the structure may show the parent alone. Read-outs that look alike come from different tables or passages of the source.

Molecular target: hTRPV3 (Homo sapiens (Human), UniProt Q8NET8)
Test: Whole-cell patch clamp, hTRPV3 Phase 1 / Phase 2 currents
Format: cell-based
From the text: Whole-cell patch clamp experiments permit the detection of currents through the TRPV3 channel in the cell line described above. A glass electrode is brought into contact with a single cell and the membrane is then ruptured, permitting control of the voltage of the cell membrane and measurement of currents flowing across the membrane using the amplifier attached to the electrode. A perfusion system permits control of the extracellular solution, including the addition of blockers and activators of the current. The current can be activated by heating this solution to 28° C. or warmer or by addition of 20 μM 2-APB to the solution.
TRPV3 cells were induced 20-48 hours, removed from growth plates, and replated at low density (to attain good single-cell physical separation) on glass coverslips for measurement. In some cases, cells were grown in low density overnight on glass coverslips. Patch clamp recordings were made in the whole-cell mode with a holding potential of −40 mV. Every 5 seconds, a voltage ramp was applied from −120 to +100 mV, 400 ms in duration. Currents elicited were quantified at −80 mV and +80 mV. […] External solution was Ringer's solution described above.
P1 refers to the Phase 1 current for human (h) TRPV3, and P2 refers to the Phase 2 current for human (h) TRPV3.
In Tables 3 and 4, Phase 1 refers to Phase 1 current for human (h) TRPV3 or rat (r) TRPV3, and Phase 2 refers to Phase 2 current for human (h) TRPV3 or rat (r) TRPV3. The hTRPV3 and rTRPV3 assays were performed as described herein. hERG refers to the inhibition the human ERG (hERG) channel. NaV1.5, refers to the pore forming aL-subunit of the voltage-dependent cardiac Na(+) channel and is an integral membrane protein involved in the initiation and conduction of action potentials. hTRPV3 HAMA IC50 refers to the IC50 of TRPV3 cells stably expressed in TRex-293 cells. Solubility Ringer refers to the compounds' solubility in Ringer's solution. LM T1/2 refers to liver microsome half-lives in either rat or human liver microsomes. FLIPR IC50 refers to the IC50 of the test compounds against recombinant hTRPV3 cells.

[1] = Phase 1 current, inward, whole-cell patch clamp, read-out: hTRPV3 Patch P1 Inwd
[2] = Phase 2 current, inward, whole-cell patch clamp, read-out: hTRPV3 Patch P2 Inwd
[3] = Phase 1 current, human TRPV3, read-out: hTRPV3 (nM) Phase 1
[4] = Phase 1 current, read-out: hTRPV3 (nM) (Phase 1)
[5] = Phase 2 current, read-out: hTRPV3 (nM) (Phase 2)

hTRPV3, sequence (Q8NET8 whole entry): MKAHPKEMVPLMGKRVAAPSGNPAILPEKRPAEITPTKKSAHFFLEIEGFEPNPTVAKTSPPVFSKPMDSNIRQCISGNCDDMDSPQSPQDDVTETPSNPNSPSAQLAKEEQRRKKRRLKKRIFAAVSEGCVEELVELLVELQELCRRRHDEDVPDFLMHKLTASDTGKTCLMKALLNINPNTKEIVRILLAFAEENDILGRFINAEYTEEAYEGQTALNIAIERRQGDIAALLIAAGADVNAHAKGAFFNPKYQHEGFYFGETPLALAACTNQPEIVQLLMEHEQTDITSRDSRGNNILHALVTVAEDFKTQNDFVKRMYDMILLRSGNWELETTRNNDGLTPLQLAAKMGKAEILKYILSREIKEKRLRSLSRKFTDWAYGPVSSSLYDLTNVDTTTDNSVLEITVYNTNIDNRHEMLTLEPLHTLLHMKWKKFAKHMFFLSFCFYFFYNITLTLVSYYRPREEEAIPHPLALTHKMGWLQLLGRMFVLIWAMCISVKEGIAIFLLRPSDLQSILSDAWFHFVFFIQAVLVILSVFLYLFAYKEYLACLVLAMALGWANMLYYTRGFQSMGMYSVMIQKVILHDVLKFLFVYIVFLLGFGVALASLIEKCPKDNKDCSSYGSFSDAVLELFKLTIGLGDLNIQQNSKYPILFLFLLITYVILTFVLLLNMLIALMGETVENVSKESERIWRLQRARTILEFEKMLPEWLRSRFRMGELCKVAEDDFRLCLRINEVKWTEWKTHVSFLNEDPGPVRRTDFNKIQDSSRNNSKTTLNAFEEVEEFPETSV

| Molecule | IC50 [1] [nM] | further results |
| --- | --- | --- |
| 2-(1-o-tolylpyrrolidin-3-yloxy)-5-(trifluoromethyl)pyridine [Compound 1-1] | > 1000 | IC50 [2]: > 1000 nM |
| 5-(2-isopropylphenoxy)-2-(1-(pyrazine-2-carbonyl)pyrrolidin-3-yl)benzamide [Compound 2-103] | > 1000 | IC50 [3]: ~5250 nM |
| Cc1cccc(C(=O)c2ccc(C3CCN(C(=O)c4ncccc4Cl)C3)c(CO)c2)c1 (single isomer, unassigned) [Compound 2-3] | 10 to 100 |  |
| Cc1cccc(C(O)c2ccc(C3CCN(C(=O)c4ncccc4Cl)C3)c(CO)c2)c1 (single isomer, unassigned) [Compound 2-8] | > 1000 | IC50 [3]: > 3200 nM |
| CC(C)(C)NS(=O)(=O)c1cc(-c2ccccc2)ccc1N1CCC(Oc2ccc(C(F)(F)F)cn2)C1 (stereo in doubt) [Compound 1-96, (S)—N-tert-butyl-4-(3-(5-(trifluoromethyl)pyridin-2-yloxy)pyrrolidin-1-yl)biphenyl-3-sulfonamide] | > 1000 | IC50 [4]: > 3200 nM; IC50 [2]: > 1000 nM; IC50 [5]: > 3200 nM |
| NC(=O)c1cc(-c2ccccc2)ccc1N1CC[C@H](Nc2ccc(C(F)(F)F)cn2)C1 (stereo in doubt) [Compound 1-375] |  | IC50 [4]: > 1000 nM and ~5500 nM; IC50 [5]: > 1000 nM and ~2850 nM |
| N#Cc1ccccc1N1CCC(Oc2ccc(C(F)(F)F)cn2)C1 (centres unmarked) [Compound 1-5] | > 1000 | IC50 [2]: > 1000 nM |
| N#Cc1ccccc1N1CC[C@@H](Oc2ccc(C(F)(F)F)cn2)C1 [Compound 1-9, (R)-2-(3-(5-(trifluoromethyl)pyridin-2-yloxy)pyrrolidin-1-yl)benzonitrile] | > 1000 |  |
| N#Cc1ccccc1N1CC[C@H](Oc2ccc(C(F)(F)F)cn2)C1 [Compound 1-11, (S)-2-(3-(5-(trifluoromethyl)pyridin-2-yloxy)pyrrolidin-1-yl)benzonitrile] | > 1000 |  |
| NCc1ccccc1N1CC[C@H](Oc2ccc(C(F)(F)F)cn2)C1 [Compound 1-13, (S)-(2-(3-(5-(trifluoromethyl)pyridin-2-yloxy)pyrrolidin-1-yl)phenyl)methanamine HCl salt] | > 1000 | IC50 [2]: > 1000 nM |
| CC(C)Oc1ccccc1N1CC[C@H](Oc2ccc(C(F)(F)F)cn2)C1 [Compound 1-15, (S)-2-(1-(2-isopropoxyphenyl)pyrrolidin-3-yloxy)-5-(trifluoromethyl)pyridine] | > 1000 | IC50 [2]: > 1000 nM |
| NCc1ccccc1N1CC[C@@H](Oc2ccc(C(F)(F)F)cn2)C1 [Compound 1-20, (R)-(2-(3-(5-(trifluoromethyl)pyridin-2-yloxy)pyrrolidin-1-yl)phenyl)methanamine] | > 1000 | IC50 [2]: > 1000 nM |
| N#Cc1ccc(N2CC[C@H](Oc3ccc(C(F)(F)F)cn3)C2)c(C(N)=O)c1 [Compound 1-23, (S)-5-cyano-2-(3-(5-(trifluoromethyl)pyridin-2-yloxy)pyrrolidin-1-yl)benzamide] | > 1000 |  |
| O=C(O)c1ccccc1N1CC[C@H](Oc2ccc(C(F)(F)F)cn2)C1 [Compound 1-24, (S)-2-(3-(5-(trifluoromethyl)pyridin-2-yloxy)pyrrolidin-1-yl)benzoic acid] | > 1000 |  |
| FC(F)(F)c1ccc(O[C@H]2CCN(c3ccccc3OC3CCCC3)C2)nc1 [Compound 1-25, (S)-2-(1-(2-(cyclopentyloxy)phenyl)pyrrolidin-3-yloxy)-5-(trifluoromethyl)pyridine] | > 1000 |  |
| FC(F)(F)c1ccc(O[C@H]2CCN(c3ccccc3OCc3ccccc3)C2)nc1 [Compound 1-26, (S)-2-(1-(2-(benzyloxy)phenyl)pyrrolidin-3-yloxy)-5-(trifluoromethyl)pyridine] | > 1000 |  |

| Molecule | IC50 [1] [nM] | further results |
| --- | --- | --- |
| N#Cc1ccc(N2CC[C@@H](Oc3ccc(C(F)(F)F)cn3)C2)c(C(N)=O)c1 [Compound 1-34, (R)-5-cyano-2-(3-(5-(trifluoromethyl)pyridin-2-yloxy)pyrrolidin-1-yl)benzamide] | > 1000 |  |
| NCc1ccc(N2CC[C@H](Oc3ccc(C(F)(F)F)cn3)C2)c(C(N)=O)c1 [Compound 1-35] | > 1000 |  |
| FC(F)(F)c1ccc(O[C@@H]2CCN(c3ccccc3OC3CCCC3)C2)nc1 [Compound 1-36, (R)-2-(1-(2-(cyclopentyloxy)phenyl)pyrrolidin-3-yloxy)-5-(trifluoromethyl)pyridine] | > 1000 |  |
| CC(C)Oc1ccccc1N1CC[C@@H](Oc2ccc(C(F)(F)F)cn2)C1 [Compound 1-37, (R)-2-(1-(2-isopropoxyphenyl)pyrrolidin-3-yloxy)-5-(trifluoromethyl)pyridine] | > 1000 |  |
| FC(F)(F)c1ccc(O[C@@H]2CCN(c3ccccc3OCc3ccccc3)C2)nc1 [Compound 1-38, (R)-2-(1-(2-(benzyloxy)phenyl)pyrrolidin-3-yloxy)-5-(trifluoromethyl)pyridine] | > 1000 |  |
| CNC(=O)c1ccccc1N1CC[C@H](Oc2ccc(C(F)(F)F)cn2)C1 [Compound 1-39, (S)—N-methyl-2-(3-(5-(trifluoromethyl)pyridin-2-yloxy)pyrrolidin-1-yl)benzamide] | > 1000 |  |
| O=C(O)c1ccccc1N1CC[C@@H](Oc2ccc(C(F)(F)F)cn2)C1 [Compound 1-41, (R)-2-(3-(5-(trifluoromethyl)pyridin-2-yloxy)pyrrolidin-1-yl)benzoic acid] | > 1000 | IC50 [2]: > 1000 nM |
| NCc1ccc(N2CC[C@@H](Oc3ccc(C(F)(F)F)cn3)C2)c(C(N)=O)c1 [Compound 1-45] | > 1000 |  |
| CC(C)NC(=O)c1ccccc1N1CC[C@H](Oc2ccc(C(F)(F)F)cn2)C1 [Compound 1-46, (S)—N-isopropyl-2-(3-(5-(trifluoromethyl)pyridin-2-yloxy)pyrrolidin-1-yl)benzamide] | > 1000 |  |
| CNC(=O)c1ccccc1N1CC[C@@H](Oc2ccc(C(F)(F)F)cn2)C1 [Compound 1-47, (R)—N-methyl-2-(3-(5-(trifluoromethyl)pyridin-2-yloxy)pyrrolidin-1-yl)benzamide] | > 1000 |  |
| CC(C)NC(=O)c1ccccc1N1CC[C@@H](Oc2ccc(C(F)(F)F)cn2)C1 [Compound 1-49, (R)—N-isopropyl-2-(3-(5-(trifluoromethyl)pyridin-2-yloxy)pyrrolidin-1-yl)benzamide] | > 1000 |  |
| O=C(NCc1ccccc1)c1ccccc1N1CC[C@@H](Oc2ccc(C(F)(F)F)cn2)C1 [Compound 1-50, (R)—N-benzyl-2-(3-(5-(trifluoromethyl)pyridin-2-yloxy)pyrrolidin-1-yl)benzamide] | > 1000 | IC50 [2]: > 1000 nM |
| O=C(NCc1ccccc1)c1ccccc1N1CC[C@H](Oc2ccc(C(F)(F)F)cn2)C1 [Compound 1-51, (S)—N-benzyl-2-(3-(5-(trifluoromethyl)pyridin-2-yloxy)pyrrolidin-1-yl)benzamide] |  | IC50 [2]: > 1000 nM |
| O=C(c1ccccc1N1CC[C@H](Oc2ccc(C(F)(F)F)cn2)C1)N(Cc1ccccc1)Cc1ccccc1 [Compound 1-52, (S)—N,N-dibenzyl-2-(3-(5-(trifluoromethyl)pyridin-2-yloxy)pyrrolidin-1-yl)benzamide] | > 1000 |  |
| O=C(c1ccccc1N1CC[C@@H](Oc2ccc(C(F)(F)F)cn2)C1)N(Cc1ccccc1)Cc1ccccc1 [Compound 1-53, (R)—N,N-dibenzyl-2-(3-(5-(trifluoromethyl)pyridin-2-yloxy)pyrrolidin-1-yl)benzamide] | > 1000 |  |
